In patent publication US10624836B2, “Essential oil of achillea as anti-ageing agent” (L'OREAL, priority 2013, dated 2020):

Key:
[1] = system: epidermis of a Realskin™ reconstructed skin; experiment: Intra-tissue glutathione (GSH) level in reconstructed skin, LC/MS of GS-NEM; type: cell-based; settings: lipoic acid 250 μmol·l^−1; 16 h at 37° C.; positive control
Description: For this, the GSH level was measured in the epidermis of a Realskin™ reconstructed skin which was: • nontreated (control), • treated with essential oil of Achillea at 0.01% by volume, or • treated with lipoic acid at 250 μmol·l^−1 (positive control).
The reconstructed tissue model kits are conditioned for transport on agar medium. Upon arrival, the tissues were reconditioned in a maintenance medium for a minimum of 16 h at 37° C. in a moisture-saturated atmosphere enriched with 5% CO2. The same medium was used for the incubations in the presence of the substrate.
The various solutions (2 ml) (of essential oil of Achillea at 0.01% by volume and of lipoic acid at […]) were deposited in the wells underneath the skins in order to diffuse through said skins more easily by capillary action. The tissues were then incubated in an incubator at 37° C. for 16 h.
The tissues were ground by means of a Potter grinder in […] of a solution of N-ethylmaleimide (NEM) at 2.5 mmol·l^−1 (excess of NEM). The Potter grinder was then washed with […] of ultrapure water, and 500 μl of 2% formic acid were added. The samples were then centrifuged for 15 minutes at 6000 rpm and at 4° C.
In order to assay the glutathione coupled to the NEM (GS-NEM), […] of the supernatant is diluted in 975 μl of 1% formic acid (1/40) in a 1 ml vial. […]

[2] = system: primary normal human keratinocytes; experiment: Collagen IV production by keratinocytes, in situ immunolabelling and image analysis; type: cell-based; settings: TGF-β tested at 10 ng/ml; 72 hours at 37° C.; positive control
Description: The keratinocytes were seeded into and cultured in culture medium for 24 hours.
The culture medium (2.5 ml) was then replaced: • either with test medium containing TGF-β (Transforming Growth Factor β) at 10 ng/ml (positive control), • or with test medium containing the essential oil of Example 1 at 0.003% by volume, • or with the same culture medium (control).
The cells were then incubated for 72 hours at 37° C.
The culture medium was removed and the cells were rinsed, fixed and permeabilized. They were then labelled with an Anti-Collagen IV primary antibody sold by Abcam (reference: Ab6586) directed against the protein of interest (collagen IV). This antibody was visualized with an Alexa Fluor® 488 Goat Anti-Rabbit IgG (H+L) secondary antibody sold by Invitrogen (reference: A11008) coupled to a fluorochrome (GAR-Alexa 488). In parallel, the nuclei of the cells were stained with Hoechst 33258 (bisbenzimide).
The image acquisition was carried out with an INCellAnalyzer™1000 (GE Healthcare) high-resolution imaging system. For each well, 5 digitized images were acquired.
The labellings were quantified by measuring the fluorescence intensity of the proteins relative to the number of nuclei identified by the Hoechst product (integration of the digital data using the Developer Toolbox 1.5 software, GE Healthcare).

Row | Compound | increase in the GSH level relative to the nontreated tissues [1] | collagen IV production by the keratinocytes, relative to the control [2] [%]
1 | O=C(O)CCCC[C@@H]1CCSS1 (racemic) [lipoic acid] | 52.0+/−12.7% | –
2 | TGF-β | – | 594
